# Data: ChEMBL document CHEMBL1130663, “N-substituted octahydro-4a-(3-hydroxyphenyl)-10a-methyl-benzo[g]isoquinolines are opioid receptor pure antagonists” (Bioorg Med Chem Lett, 1998)
# Tests used:
# [1] = molecular target: T1, Kappa-type opioid receptor (Cavia porcellus, UniProt P41144); assay: Binding affinity was determined as ability to displace [3H]-U-69, radioligand from Opioid receptor kappa 1
# [2] = molecular target: T1, Kappa-type opioid receptor; assay: Compound was tested for the inhibition of [35S]GTP-gamma-S, binding Opioid receptor kappa 1; type: functional
# [3] = molecular target: Delta-type opioid receptor (Rattus norvegicus, UniProt P33533); assay: Binding affinity was determined as ability to displace [3H]DADLE radioligand from Opioid receptor delta 1
# Mu-type opioid receptor [4] = molecular target: Mu-type opioid receptor (Rattus norvegicus, UniProt P33535); assay: Binding affinity was determined as ability to displace [3H]DAMGO radioligand from Mu opioid receptor
# Mu-type opioid receptor [5] = molecular target: T2, Mu-type opioid receptor (Cavia porcellus, UniProt P97266); assay: Compound was tested for the inhibition of [35S]GTP-gamma-S, binding in Guinea pig Caudate stimulated by the opioid receptor agonist Mu-DAMGO; type: functional
# Mu-type opioid receptor [6] = molecular target: T2, Mu-type opioid receptor; assay: Binding affinity was determined against Mu opioid receptor using [3H]-Naltrexone as radioligand
# [7] = molecular target: T1, Kappa-type opioid receptor; assay: Compound was tested for the inhibition of [35S]GTP-gamma-S, binding to Opioid receptor kappa 1; type: functional
# T1 sequence (P41144 whole entry): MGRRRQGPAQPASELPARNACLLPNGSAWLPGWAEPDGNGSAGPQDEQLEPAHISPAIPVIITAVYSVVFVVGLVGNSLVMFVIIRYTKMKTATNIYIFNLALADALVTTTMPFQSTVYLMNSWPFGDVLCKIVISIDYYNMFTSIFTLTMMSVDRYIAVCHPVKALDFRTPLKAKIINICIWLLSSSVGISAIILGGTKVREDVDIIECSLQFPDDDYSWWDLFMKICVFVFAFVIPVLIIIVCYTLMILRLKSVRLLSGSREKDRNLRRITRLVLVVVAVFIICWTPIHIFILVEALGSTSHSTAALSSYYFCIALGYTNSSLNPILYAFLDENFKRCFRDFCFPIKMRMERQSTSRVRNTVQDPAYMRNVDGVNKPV
# T2 sequence (P97266 whole entry): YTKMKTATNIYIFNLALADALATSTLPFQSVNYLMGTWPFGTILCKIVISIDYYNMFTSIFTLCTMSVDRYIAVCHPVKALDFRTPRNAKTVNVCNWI
# Sequence of Delta-type opioid receptor (P33533 whole entry): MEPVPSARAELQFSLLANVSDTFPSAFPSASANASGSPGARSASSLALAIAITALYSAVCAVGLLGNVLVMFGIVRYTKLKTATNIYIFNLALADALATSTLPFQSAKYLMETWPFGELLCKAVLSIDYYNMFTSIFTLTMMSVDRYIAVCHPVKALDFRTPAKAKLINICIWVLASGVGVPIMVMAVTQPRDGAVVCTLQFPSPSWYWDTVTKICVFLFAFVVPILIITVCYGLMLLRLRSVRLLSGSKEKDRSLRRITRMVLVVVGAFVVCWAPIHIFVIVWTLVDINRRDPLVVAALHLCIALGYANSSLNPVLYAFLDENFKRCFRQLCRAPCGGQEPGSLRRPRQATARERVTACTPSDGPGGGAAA
# Sequence of Mu-type opioid receptor (Rattus norvegicus, UniProt P33535) (P33535 whole entry): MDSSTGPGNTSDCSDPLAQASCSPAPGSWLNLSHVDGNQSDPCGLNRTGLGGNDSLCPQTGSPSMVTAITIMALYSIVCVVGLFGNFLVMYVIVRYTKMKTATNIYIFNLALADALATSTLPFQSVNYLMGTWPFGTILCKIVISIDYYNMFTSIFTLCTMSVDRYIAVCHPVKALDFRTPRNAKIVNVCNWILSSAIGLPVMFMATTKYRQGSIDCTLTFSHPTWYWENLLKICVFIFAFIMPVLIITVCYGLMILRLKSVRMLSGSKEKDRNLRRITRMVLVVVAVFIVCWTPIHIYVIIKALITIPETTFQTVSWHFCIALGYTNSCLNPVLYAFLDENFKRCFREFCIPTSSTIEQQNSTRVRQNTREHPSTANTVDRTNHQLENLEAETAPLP
SMILES,Ki [1],Ki [2],Ki [3],Ki (Mu-type opioid receptor [4]),Ki (Mu-type opioid receptor [5]),Ki (Mu-type opioid receptor [6]),Ki [7]
C[C@]12Cc3ccccc3C[C@@]1(c1cccc(O)c1)CCN(CCc1ccccc1)C2,9.8 nM,6.61 nM,1270 nM,11.2 nM,10 nM,–,–
C[C@H]1CN(C)CC[C@@]1(C)c1cccc(O)c1,–,–,–,–,–,80 nM,–
CN1CC[C@]2(c3cccc(O)c3)Cc3ccccc3C[C@]2(C)C1,166 nM,–,> 5710 nM,297 nM,119 nM,–,52.6 nM
